Experimental data taken from DBAASP.
≈ marks a conversion by molar mass, not a printed value. Where “and” joins values, the source holds several entries; their conditions need not be identical. Equal values may be shown once.

Key:
Test in all cases: ≥ marks a high value that may be exact or a test limit, other limits are often not marked, values filed in µg/mL are converted to µM
Escherichia coli TOP 10 = test system: Escherichia coli TOP 10
[1] = test system: Staphylococcus aureus ATCC 29213
[2] = test system: Escherichia coli ATCC 25922
[3] = test system: Staphylococcus aureus Xen36
[4] = test system: Staphylococcus aureus ATCC 25923
[5] = test system: Pseudomonas aeruginosa ATCC 27853
Pseudomonas aeruginosa = test system: Pseudomonas aeruginosa
Escherichia coli ESBL = test system: Escherichia coli ESBL
Staphylococcus aureus MR = test system: Staphylococcus aureus MR
[6] = test system: Staphylococcus aureus ATCC BAA-1696
[7] = test system: Klebsiella pneumoniae ESBL 344/17
[8] = test system: Staphylococcus aureus SG511
[9] = test system: Staphylococcus aureus ATCC 33591
Escherichia coli ML-35p = test system: Escherichia coli ML-35p
[10] = test system: Escherichia coli ESBL 521/17
[11] = test system: Acinetobacter baumannii 7226/16
[12] = test system: Staphylococcus aureus 1399/17
[13] = test system: Pseudomonas aeruginosa 522/17
[14] = test system: Pseudomonas aeruginosa 910
[15] = test system: Pseudomonas aeruginosa 253
[16] = test system: Mycobacterium tuberculosis H37Rv
[17] = test system: Staphylococcus epidermidis
Escherichia coli UB1005 = test system: Escherichia coli UB1005
[18] = test system: Pseudomonas aeruginosa H103
Escherichia coli = test system: Escherichia coli
[19] = test system: Pseudomonas aeruginosa 919
[20] = test system: Pseudomonas aeruginosa PAO1
[21] = test system: Salmonella enterica serovar Typhimurium
[22] = test system: Enterococcus faecalis NCTC 12203
[23] = test system: Enterococcus faecalis ATCC 29212
Candida albicans = test system: Candida albicans
[24] = test system: Staphylococcus aureus USA 300
Bacillus subtilis 168 = test system: Bacillus subtilis 168
[25] = test system: Escherichia coli DH5alpha
[26] = test system: Staphylococcus aureus NRS 72
[27] = test system: Mycobacterium tuberculosis H37Ra
[28] = test system: Escherichia coli NBRC 14237
[29] = test system: Staphylococcus aureus NBRC 12732
[30] = test system: Saccharomyces cerevisiae NBRC 10217

`CC[C@H](C)[C@H](NC(=O)[C@H](CCCCN)NC(=O)[C@H](CO)NC(=O)[C@@H](NC(=O)[C@@H](NC(=O)[C@H](CC(N)=O)NC(=O)[C@H](CCCCN)NC(=O)[C@H](Cc1ccccc1)NC(=O)[C@H](C)NC(=O)[C@@H]1CCCN1C(=O)[C@H](CC(C)C)NC(=O)[C@@H](N)Cc1ccccc1)C(C)C)[C@@H](C)CC)C(=O)N[C@@H](CC(C)C)C(=O)N[C@@H](CCCCN)C(=O)N[C@@H](C)C(=O)N[C@@H](CC(C)C)C(=O)N[C@@H](CCCCN)C(=O)N[C@@H](CCCCN)C(=O)N[C@@H](CCCCN)C(=O)N[C@H](C(N)=O)C(C)C` [FLPAFKNVISKILKALKKKV] showed an MIC (Escherichia coli TOP 10) of 5.47 µM (≈ 12.5 µg/mL).
With `NCCCC[C@H](NC(=O)CNC(=O)[C@H](CCCCN)NC(=O)[C@H](CC(N)=O)NC(=O)[C@H](CCCCN)NC(=O)[C@H](Cc1cnc[nH]1)NC(=O)[C@H](CCCCN)NC(=O)CN)C(=O)N[C@@H](CCCCN)C(=O)N[C@@H](CC(N)=O)C(=O)NCC(=O)N[C@@H](CCCCN)C(=O)N[C@@H](Cc1cnc[nH]1)C(=O)N[C@@H](CC(N)=O)C(=O)NCC(=O)N[C@@H](Cc1c[nH]c2ccccc12)C(=O)N[C@@H](CCCCN)C(=O)N[C@@H](Cc1c[nH]c2ccccc12)C(=O)N[C@@H](Cc1c[nH]c2ccccc12)C(=O)N[C@@H](Cc1c[nH]c2ccccc12)C(=O)O` [GKHKNKGKKNGKHNGWKWWW] the MIC [1] was greater than 3.27 µM, the MIC [2] was 3.19 µM (≈ 8 µg/mL) and the MIC [3] was 3.27 µM (≈ 8.19 µg/mL). The MIC [4] was 1.6 µM (≈ 4 µg/mL), the MIC [5] was 3.19 µM (≈ 8 µg/mL) and the MIC (Pseudomonas aeruginosa) was 6.39 µM (≈ 16 µg/mL). It also gave an MIC (Escherichia coli ESBL) of 2.26 µM (≈ 5.66 µg/mL), an MIC (Staphylococcus aureus MR) of 1.6 µM (≈ 4 µg/mL) and an MIC [6] of 3.27 µM (≈ 8.19 µg/mL).
`CC[C@H](C)[C@H](NC(=O)[C@H](CCCN=C(N)N)NC(=O)[C@@H](NC(=O)[C@@H]1CCCN1C(=O)[C@@H]1CCCN1C(=O)[C@H](CCCN=C(N)N)NC(=O)[C@H](CCCN=C(N)N)NC(=O)[C@H](Cc1ccccc1)NC(=O)[C@@H]1CCCN1C(=O)[C@H](CC(C)C)NC(=O)[C@H](CCCN=C(N)N)NC(=O)[C@H](Cc1ccccc1)NC(=O)[C@@H](N)CCCN=C(N)N)[C@@H](C)CC)C(=O)N[C@@H](Cc1cnc[nH]1)C(N)=O` [RFRLPFRRPPIRIH] was tested, and the MIC [7] was 16 µM (≈ 29.8 µg/mL), the MIC [8] was 2 µM (≈ 3.72 µg/mL) and the MIC [9] was 16 µM (≈ 29.8 µg/mL). It also gave an MIC (Escherichia coli ML-35p) of 8 µM (≈ 14.9 µg/mL), an MIC [10] of 16 µM (≈ 29.8 µg/mL) and an MIC [11] of 16 µM (≈ 29.8 µg/mL). For the same compound, the MIC [12] was no less than 128 µM and the MIC [13] was no less than 64 µM.
`CC[C@H](C)[C@H](NC(=O)[C@H](CCCN=C(N)N)NC(=O)[C@H](Cc1c[nH]c2ccccc12)NC(=O)[C@H](CCCN=C(N)N)NC(=O)[C@@H](N)CCCN=C(N)N)C(=O)N[C@H](C(=O)N[C@H](C(=O)N[C@H](C(=O)N[C@@H](CCCN=C(N)N)C(=O)N[C@H](C(=O)N[C@@H](CCCN=C(N)N)C(=O)N[C@@H](CCCN=C(N)N)C(=O)O)C(C)C)[C@@H](C)CC)C(C)C)C(C)C` [RRWRIVVIRVRR] gave an MIC [14] of 16 µM (≈ 26.6 µg/mL), an MIC [15] of 8 µM (≈ 13.3 µg/mL) and an MIC [16] of 1.92 µM (≈ 3.2 µg/mL). The MIC [17] was 0.12 µM and 0.3 µM, the MIC (Escherichia coli UB1005) was 0.601 µM (≈ 1 µg/mL) and the MIC [1] was 1.2 µM (≈ 2 µg/mL). The MIC [18] was 1.2 µM (≈ 2 µg/mL), the MIC [2] was 2 µM (≈ 3.33 µg/mL) and the MIC [4] was 4 µM (≈ 6.66 µg/mL). The MIC (Escherichia coli) was 1.2 µM (≈ 2 µg/mL), the MIC [19] was 16 µM (≈ 26.6 µg/mL) and the MIC [20] was 8 µM (≈ 13.3 µg/mL). For the same compound, the MIC [21] was 2.4 µM (≈ 4 µg/mL), the MIC [22] was 1.2 µM (≈ 2 µg/mL) and the MIC [23] was 2.4 µM (≈ 4 µg/mL). The MIC (Candida albicans) was 2.4 µM (≈ 4 µg/mL) and the MIC (Staphylococcus aureus MR) was 1.2 µM (≈ 2 µg/mL).
In the case of `CC(C)C[C@H](NC(=O)[C@H](Cc1cnc[nH]1)NC(=O)[C@H](CO)NC(=O)[C@H](CC(N)=O)NC(=O)[C@H](CCCCN)NC(=O)[C@H](CCCCN)NC(=O)[C@H](Cc1ccccc1)NC(=O)[C@H](Cc1c[nH]c2ccccc12)NC(=O)[C@H](CCCCN)NC(=O)CNC(=O)[C@H](Cc1c[nH]c2ccccc12)NC(=O)[C@@H](N)CCCN=C(N)N)C(=O)N[C@@H](CO)C(N)=O` [RWGKWFKKNSHLS], the MIC [24] is reported as no less than 80 µM, the MIC (Bacillus subtilis 168) is reported as no less than 80 µM and the MIC [25] is reported as no less than 80 µM. It also gave an MIC [20] greater than 80 µM, an MIC [26] of no less than 80 µM and an MIC [27] of no less than 80 µM.
For `CC[C@H](C)[C@H](NC(=O)[C@H](CCCN=C(N)N)NC(=O)[C@H](CCCN=C(N)N)NC(=O)[C@H](CCCN=C(N)N)NC(=O)[C@H](CO)NC(=O)[C@H](Cc1ccccc1)NC(=O)[C@H](CC(=O)O)NC(=O)[C@H](Cc1ccccc1)NC(=O)[C@H](CCCN=C(N)N)NC(=O)[C@H](CCCN=C(N)N)NC(=O)[C@H](CCCN=C(N)N)NC(=O)[C@@H](N)CO)C(=O)N[C@@H](Cc1ccc(O)cc1)C(=O)N[C@H](C(=O)N[C@@H](C)C(=O)N[C@@H](CCCN=C(N)N)C(=O)N[C@@H](CCCN=C(N)N)C(=O)N[C@@H](CCCN=C(N)N)C(=O)N[C@@H](CO)C(=O)N[C@@H](CC(C)C)C(=O)N[C@@H](C)C(=O)N[C@@H](Cc1ccccc1)C(=O)N[C@@H](C)C(=O)N[C@@H](Cc1cnc[nH]1)C(=O)N[C@@H](CCCN=C(N)N)C(=O)N[C@@H](CCCN=C(N)N)C(=O)N[C@@H](CCCN=C(N)N)C(=O)O)C(C)C` [SRRRFDFSRRRIYVARRRSLAFAHRRR], the MIC [28] was 6.25 µM (≈ 22.2 µg/mL), the MIC [29] was 6.25 µM (≈ 22.2 µg/mL) and the MIC [30] was 6.25 µM (≈ 22.2 µg/mL).
